# Assay results as given in US20100279941A1, “CD36 MODULATION AND USES THEREOF” (priority 2009, published 2010).
# Key:
# [1] = system: CD36^+/+ and CD36^−/− mice; assay: Myeloperoxidase assay of myocardial leukocyte accumulation; type: in vivo; conditions: 48 hours reperfusion; CD36-dependent (CD36^+/+ mice); 10-week pretreatment; p<0.05
# Method: Experimental model of IHD: Transient left coronary artery ligation in vivo. Mice were subjected to a transient LCAL surgery as described before, with minor modifications [Tarnayski et al., 2004]. Mice were injected i.p. with buprenorphine (0.05 mg/kg) and placed in an induction chamber with inhalation anesthesia comprised of 3% isoflurane mixed with 100% oxygen. Mice were intubated with a blunt ended 20-gauge catheter into the trachea via the mouth and mechanically ventilated at a tidal volume of 7 ml/kg at 130 respirations/min with a MiniVent™ mouse ventilator (model 845, Harvard Apparatus, Saint-Laurent, QC, Canada). Anesthesia was maintained with 1.5-2% isoflurane and the animals were kept warm using electrical heating pads during the surgical procedure. The chest was opened by a horizontal incision through the skin and muscle layers at the third intercostal space exposing the left side of the heart. […] Visual blanching distal to the coronary occlusion confirmed myocardial ischaemia. Lidocaine (6 mg/kg) was administered i.p. just following occlusion and prior to reperfusion. After 30 minutes, the PE10 tubing was removed allowing reperfusion. The lungs were reinflated and the chest wound closed layer by layer before extubation. […]
# Myeloperoxidase assay. […] The numbers of PMN per left ventricle were calculated from the standard curves.
# [2] = system: CD36^+/+ and CD36^−/− mice; assay: Area at risk and infarct size after 30-min LCAL and 48 hours reperfusion (Evans blue/TTC); type: in vivo
# Excerpt: Animals. CD36^−/− mice were generated by targeted homologous recombination and backcrossed six times to C57BI/6. Wild-type control littermates (CD36^+/+) were bred from the same cross and were therefore of identical genetic background [Febbraio et al., 2000]. Male mice, aged 23 (±1) weeks, were used for experiments. They were fed standard chow (#5075, Charles Rivers, Saint-Constant, Québec, Canada) and water ad libitum, and housed singly during treatment periods (2 or 10 weeks). Daily pharmacological treatments with 300 μg/kg of EP 80317 or CP1A(IV) or vehicle (0.9% NaCl) were done by subcutaneous (s.c.) injections.
# C57BU6 mice were bred in house. Male mice, aged 23 (±1) weeks, were used for experiments. They were fed standard chow (#5075, Charles Rivers, Saint-Constant, Québec, Canada) and water ad libitum, and housed singly during treatment periods (2 weeks). Daily pharmacological treatments with 300 μg/kg (289 nmol/kg) of EP 80317 or 289 nmol/kg of CP-3(IV), 289 nmol/kg of CP-AP-4 or vehicle (0.9% NaCl) were done by subcutaneous (s.c.) injections.
# Experimental model of IHD: Transient left coronary artery ligation in vivo. Mice were subjected to a transient LCAL surgery as described before, with minor modifications [Tarnayski et al., 2004]. Mice were injected i.p. with buprenorphine (0.05 mg/kg) and placed in an induction chamber with inhalation anesthesia comprised of 3% isoflurane mixed with 100% oxygen. Mice were intubated with a blunt ended 20-gauge catheter into the trachea via the mouth and mechanically ventilated at a tidal volume of 7 ml/kg at 130 respirations/min with a MiniVent™ mouse ventilator (model 845, Harvard Apparatus, Saint-Laurent, QC, Canada). Anesthesia was maintained with 1.5-2% isoflurane and the animals were kept warm using electrical heating pads during the surgical procedure. The chest was opened by a horizontal incision through the skin and muscle layers at the third intercostal space exposing the left side of the heart. […] Visual blanching distal to the coronary occlusion confirmed myocardial ischaemia. Lidocaine (6 mg/kg) was administered i.p. just following occlusion and prior to reperfusion. After 30 minutes, the PE10 tubing was removed allowing reperfusion. The lungs were reinflated and the chest wound closed layer by layer before extubation. At 6 hours following reperfusion, mice were anesthetized (isoflurane), a blood sample withdrawn, and the heart arrested in diastole by an intravenous injection of 1 M KCl (0.5 mL). Hearts were immediately frozen at −80° C. unless otherwise stated.
# Evaluation of area at risk and infarct size. Two days after reperfusion, the left anterior descending (LAD) coronary artery was re-occluded at the original site and the abdominal aorta was injected retrogradly with 5% Evans blue dye to delineate the AAR by the absence of dark blue staining. The left ventricle, including the interventricular septum, was dissected and cut into transverse 1-mm slices from the apex to the base, using an acrylic matrix (Alto Inc., Hatfield, Pa., USA). The slices were incubated in 1% triphenyltetrazolium chloride solution at 37° C. for 15 min and placed in 10% neutral buffered formalin for 12 hours. Each slice was weighed and photographed on both sides with a digital camera (Nikon, Coolpix™ 4500, Mississauga, Ontario, Canada). The total LV area, AAR and IA were determined for each side of a slice by planimetric analysis using Adobe CS3 Photoshop™ software (Ottawa, ON, Canada), and averaged. The infarct weight was determined as follows: [(A1×WT1)+(A2×WT2)+(A3×WT3)+(A4×WT4) . . . ] where A and WT are the infarct area and weight of the section, respectively. The AAR weight was calculated in a similar manner, but by subtracting the blue (viable) stained zone from the weight. The results are expressed in terms of % IA/AAR, IA/LV and AAR/LV.
# [3] = 2-week treatment 300 μg/kg/d, CD36^+/+ mice, 48 hours reperfusion, p<0.05 vs vehicle
substance,measurement,setting,value
HAIC-2MeDTrp-DLys-Trp-DPhe-Lys-NH2 [EP 80317],reduction in myocardial leukocyte accumulation,[1],53%
same,reduction of IA/AAR ratio,[2]; [3],31%
same,reduction of IA/LV ratio,[2]; [3],34%
same,area-at-risk,"[2]; CD36^+/+ (C57BL/6) mice, 289 nmol/kg 2 weeks, 48 hours reperfusion, mean (±SE)",51 (±5) %
same,reduction of IA/LV ratios,"[2]; CD36^+/+ (C57BL/6) mice, 289 nmol/kg 2 weeks, 48 hours reperfusion, p<0.001 vs 0.9% NaCl",48%
same,effect on infarct size,"[2]; CD36^−/− mice, 48 hours reperfusion, in words",did not modulate
same,effect on AAR/LV,"[2]; pretreatment 14 days, both CD36^+/+ and CD36^−/− mice, in words",did not modulate
